In one test the target is human P2Y12 receptor (Homo sapiens, UniProt Q9H244). In words: Human P2Y12 recombinant cell membrane binding assay with 33P 2MeS-ADP. The settings on record: competition against 33P 2MeS-ADP, membranes of CHO cells with recombinant human P2Y12 receptor. As for the experimental part:
The ability of the compounds of the formula Ito inhibit the P2Y12 receptor can be assessed by determining the concentration of the compound of the formula I that binds to the human P2Y12 Recombinant Cell Membrane Binding Assay with 33P 2MeS-ADP.
Human P2Y12 Recombinant Cell Membrane Binding Assay
The ability of a test compound to bind to the P2Y12 receptor was evaluated in a recombinant cell membrane binding assay. In this competitive binding assay, the test compound competed against a radiolabeled agonist for binding to the P2Y12 receptor, expressed on the cell membrane. Inhibition of binding of the labeled material was measured and correlated to the amount and potency of the test compound. This binding assay is a modification of the procedure described by Takasaki, J. et. al, Mol. Pharmacol., 2001, Vol. 60, pg. 432. A membrane preparation was prepared from Chinese Hamster Ovary (CHO) cells with recombinant expression of the human P2Y12 receptor according to standard procedures as a source of P2Y12.
To a 96-well microtiterplate the following were added: a) 24 μl of assay buffer (10 mM HEPES, 138 mM NaCl, […] KCl, 12 mM NaHCO3, 1 mM EDTA-Na, 0.1% BSA, pH 7.4) b) 1 μL compound in DMSO c) 50 μL P2Y12 CHO membrane (20 μg/ml) and after 15 min at RT d) 25 μL of 1.61 nM 33P 2MeS-ADP (Perkin Elmer NEN custom synthesis, specific activity ˜2100 Ci/mmol) made in assay buffer.
After 20 min incubation at RT samples were transferred to 96-well microtiter filterplates (Millipore HTS GF/B), pre-wetted for 20 min with 300 μL of stop buffer (10 mM HEPES, 138 mM NaCl pH 7.4) and then filtered through completely with a Millipore plate vacuum. Next, wells were washed four times with 400 μl/well of stop buffer on a plate vacuum. The plate was disassembled and allowed to air dry overnight with the filter side up over night. The filter plates were snapped into adapter plates and 0.1 mL of Microscint 20 Scintillation Fluid (Perkin Elmer #6013621) was added to each well. The top of the filterplate was sealed with plastic plate covers. The sealed filterplate were incubated 2 hours at RT. A Microbeta Scintillation Counter was used to measure counts.
Compounds were diluted as 10 mM DMSO stocks and tested in a four-point, five-fold dilution series run in triplicate beginning at 10 μM, final concentration. Data were analyzed using a four-parameter curve fit with a fixed minimum and maximum experimentally defined as the average positive and negative controls on each plate.
Chain of human P2Y12 receptor (Q9H244 whole entry): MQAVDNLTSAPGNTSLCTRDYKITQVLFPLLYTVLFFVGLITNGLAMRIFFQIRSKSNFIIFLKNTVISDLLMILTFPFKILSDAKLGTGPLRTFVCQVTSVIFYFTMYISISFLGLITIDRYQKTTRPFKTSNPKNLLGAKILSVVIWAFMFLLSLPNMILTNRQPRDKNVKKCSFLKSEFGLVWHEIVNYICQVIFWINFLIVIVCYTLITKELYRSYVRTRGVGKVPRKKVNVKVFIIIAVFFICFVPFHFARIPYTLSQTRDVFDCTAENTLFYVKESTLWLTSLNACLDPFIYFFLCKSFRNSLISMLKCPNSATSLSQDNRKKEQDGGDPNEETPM
In the case of `CCOC(=O)N1CCN(C(=O)[C@H](CCC(=O)OC2CCCCC2)NC(=O)c2cc(OCC(=O)N3CCC[C@H]3C(=O)NC3CCC3)n(-c3ccccc3)n2)CC1` [Example 129, 4-[(S)-2-({5-[2-((S)-2-Cyclobutylcarbamoyl-pyrrolidin-1-yl)-2-oxo-ethoxy]-1-phenyl-1H-pyrazole-3-carbonyl}-amino)-4-cyclohexyloxycarbonyl-butyryl]-piperazine-1-carboxylic acid ethyl ester], the IC50 (in general, the concentration at which inhibition is half-maximal) was found to be 83 nM.
With `CCCCOC(=O)N1CCN(C(=O)[C@H](CC2CC2)NC(=O)c2cc(OCC(=O)N3CCC[C@H]3C(=O)NC3CCC3)n(-c3ccccc3)n2)CC1` [Example 234, 4-[(S)-2-({5-[2-((S)-2-Cyclobutylcarbamoyl-pyrrolidin-1-yl)-2-oxo-ethoxy]-1-phenyl-1H-pyrazole-3-carbonyl}-amino)-3-cyclopropyl-propionyl]-piperazine-1-carboxylic acid butyl ester], the IC50 was determined as 85 nM.
As for `CCOC(=O)CC[C@H](NC(=O)c1cc(OCC(=O)N2CCC[C@H]2C(=O)NC2CCC2)n(-c2cccc(F)c2)n1)C(=O)N1CCN(C(=O)OCC)CC1` [Example 140, 4-((S)-2-{[5-[2-((S)-2-Cyclobutylcarbamoyl-pyrrolidin-1-yl)-2-oxo-ethoxy]-1-(3-fluoro-phenyl)-1H-pyrazole-3-carbonyl]-amino}-4-ethoxyoxycarbonyl-butyryl)-piperazine-1-carboxylic acid ethyl ester], the half-maximal inhibitory concentration (IC50) was found to be 173 nM.
The same measure, in the same setting: the result for `CCOC(=O)N1CCN(C(=O)[C@H](CCNC(=O)C(C)(C)C)NC(=O)c2cc(OCC(=O)N3CCC[C@H]3C(=O)NC3CCC3)n(-c3ccccc3)n2)CC1` [Example 99, 4-[(S)-2-({5-[2-((S)-2-Cyclobutylcarbamoyl-pyrrolidin-1-yl)-2-oxo-ethoxy]-1-phenyl-1H-pyrazole-3-carbonyl}-amino)-4-(2,2-dimethyl-propionylamino)-butyryl]-piperazine-1-carboxylic acid ethyl ester] reads 158 nM; that for `CCOC(=O)N1CCN(C(=O)[C@H](CCNS(C)(=O)=O)NC(=O)c2cc(OCC(=O)N3CCC[C@H]3C(=O)NC3CCC3)n(-c3ccccc3)n2)CC1` [Example 94, 4-[(S)-2-({5-[2-((S)-2-Cyclobutylcarbamoyl-pyrrolidin-1-yl)-2-oxo-ethoxy]-1-phenyl-1H-pyrazole-3-carbonyl}-amino)-4-methanesulfonylamino-butyryl]-piperazine-1-carboxylic acid ethyl ester], 59 nM; that for `O=C(N[C@@H](CCCCOCc1ccccc1)C(=O)N1CCN(C(=O)OC2CCC2)CC1)c1cc(OCC(=O)N2CCC[C@H]2C(=O)NC2CCC2)n(-c2ccccc2)n1` [Example 197, 4-[(S)-6-Benzyloxy-2-({5-[2-((S)-2-cyclobutylcarbamoyl-pyrrolidin-1-yl)-2-oxo-ethoxy]-1-phenyl-1H-pyrazole-3-carbonyl}-amino)-hexanoyl]-piperazine-1-carboxylic acid cyclobutyl ester], 99 nM.
Same read-out and setting: the figure for `CCOC(=O)C(=O)NC[C@H](NC(=O)c1cc(OCC(=O)N2CCC[C@H]2C(=O)NC2CCC2)n(-c2ccccc2)n1)C(=O)N1CCN(C(=O)OCC)CC1` [Example 90, 4-[(S)-2-({5-[2-((S)-2-Cyclobutylcarbamoyl-pyrrolidin-1-yl)-2-oxo-ethoxy]-1-phenyl-1H-pyrazole-3-carbonyl}-amino)-3-(ethoxyoxalyl-amino)-propionyl]-piperazine-1-carboxylic acid ethyl ester] is 35 nM; for `CCOC(=O)N1CCN(C(=O)[C@H](CCC(=O)O)NC(=O)c2cc(OCC(=O)N3CCC[C@H]3c3ccccc3)n(-c3ccccc3)n2)CC1` [Example 170, 4-[(S)-4-Carboxy-2-({5-[2-oxo-2-((S)-2-phenyl-pyrrolidin-1-yl)-ethoxy]-1-phenyl-1H-pyrazole-3-carbonyl}-amino)-butyryl]-piperazine-1-carboxylic acid ethyl ester] it is 86 nM.
Consider `CCCCOC(=O)N1CCN(C(=O)[C@H](CC(C)C)NC(=O)c2cc(OCC(=O)N3CCC[C@H]3C(=O)NC3CCC3)n(-c3ccccc3)n2)CC1` [Example 226, 4-[(S)-2-({5-[2-((S)-2-Cyclobutylcarbamoyl-pyrrolidin-1-yl)-2-oxo-ethoxy]-1-phenyl-1H-pyrazole-3-carbonyl}-amino)-4-methyl-pentanoyl]-piperazine-1-carboxylic acid butyl ester], for which the IC50 was found to be 59 nM.
The same measure, in the same setting: the result for `CCCCOC(=O)N1CCN(C(=O)C(NC(=O)c2cc(OCC(=O)N3CCC[C@H]3C(=O)NC3CCC3)n(-c3ccccc3)n2)C(C)F)CC1` (stereo partly drawn) [Example 176, 4-[2-({5-[2-((S)-2-Cyclobutylcarbamoyl-pyrrolidin-1-yl)-2-oxo-ethoxy]-1-phenyl-1H-pyrazole-3-carbonyl}-amino)-3-fluoro-butyryl]-piperazine-1-carboxylic acid butyl ester] reads 45 nM; that for `CCOC(=O)N1CCN(C(=O)[C@H](CNC(=O)C2CC2)NC(=O)c2cc(OCC(=O)N3CCC[C@H]3C(=O)NC3CCC3)n(-c3ccccc3)n2)CC1` [Example 91, 4-[(S)-2-({5-[2-((S)-2-Cyclobutylcarbamoyl-pyrrolidin-1-yl)-2-oxo-ethoxy]-1-phenyl-1H-pyrazole-3-carbonyl}-amino)-3-(cyclopropanecarbonyl-amino)-propionyl]-piperazine-1-carboxylic acid ethyl ester], 130 nM; that for `CCOC(=O)N1CCN(C(=O)[C@H](CCC(=O)O)NC(=O)c2cc(OCC(=O)N3CCC[C@H]3C(=O)NCC(F)(F)F)n(-c3ccc(F)c(F)c3)n2)CC1` [Example 85, 4-((S)-4-Carboxy-2-{[5-[2-((S)-2-(2,2,2-trifluoroethylcarbamoyl)-pyrrolidin-1-yl)-2-oxo-ethoxy]-1-(3,4-difluoro-phenyl)-1H-pyrazole-3-carbonyl]-amino}-butyryl)-piperazine-1-carboxylic acid ethyl ester], 154 nM.

Another test has as its system human platelet rich plasma. In words: Inhibition of human platelet aggregation, 96-well assay. It counts as cell-based. The following applies: Homo sapiens, Platelet, 20 min. As for the experimental part:
Inhibition of Human Platelet Aggregation
Alternatively to a binding assay which measures a compound's ability to bind to the P2Y12 receptor, the effect on cellular function was also determined. This ability of the compound was evaluated in two platelet aggregation assays: in 96-well plates and with the “Born”-method using single cuvettes.
Whole blood was collected from healthy volunteers using 20 ml syringes containing 2 ml of ACD-A Aqua-Citrat-Dextrose-A, Fresenius). The anticoagulated whole blood was transferred into 15 ml polypropylene conical tubes (10 ml per tube). The tubes were centrifuged for 15 minutes at 150×g at RT without using the centrifuge brake. This procedure leads to a pellet of cellular components and a supernatant of platelet rich plasma (PRP). The PRP layer was collected from each tube and pooled for each donor. To avoid carry over of cellular components following centrifugation, approximately 5 ml of PRP was left in the tube. The platelet concentration was determined using a Coulter Counter.
The 15 ml tubes containing the pellet of cellular components were centrifuged again for 10 minutes at 1940×g. This pelleted out most particulate blood constituents remaining, leaving a layer of Platelet Poor Plasma (PPP). The PPP was collected for each donor. The PRP layer, previously set aside, was diluted with PPP to a final concentration of approximately 3×E8 platelets/ml with the PPP.
The human platelet aggregation assay is performed in 96-well plates using a microtiter plate reader (SpectraMax Plus 384 with SoftMax Pro software from Molecular Devices). In the plate 15 μl of test compound at 10× final concentration in NaCl is mixed with 120 μl fresh PRP and incubated for 5 minutes. Following that incubation period, 15 μl of 40 μM ADP is added to the reaction mix. This addition of ADP is sufficient to induce aggregation in the absence of an inhibitor. The plates are then transferred to the microplate reader and aggregation is measured over 20 minutes. The instrument settings include:
Absorbance at 650 nm, run time 20 minutes with readings in 1-minute intervals and 50 seconds shaking between readings all performed at 37° C.
For `CCOC(=O)N1CCN(C(=O)[C@H](CCC(=O)O)NC(=O)c2cc(OCC(=O)N3CCN(C(C)=O)CC3)n(-c3ccccc3)n2)CC1` [Example 27, 4-[(S)-2-({5-[2-(4-Acetyl-piperazin-1-yl)-2-oxo-ethoxy]-1-phenyl-1H-pyrazole-3-carbonyl}-amino)-4-carboxy-butyryl]-piperazine-1-carboxylic acid ethyl ester], 760 nM corresponded to half-maximal inhibition (IC50).
`CCOC(=O)N1CCN(C(=O)[C@H](CCC(=O)O)NC(=O)c2cc(OCC(=O)N3CC[C@H]3C(=O)NC3CC3)n(-c3ccccc3)n2)CC1` [Example 40, 4-[(S)-4-Carboxy-2-({5-[2-((S)-2-cyclopropylcarbamoyl-azetidin-1-yl)-2-oxo-ethoxy]-1-phenyl-1H-pyrazole-3-carbonyl}-amino)-butyryl]-piperazine-1-carboxylic acid ethyl ester] had an IC50 of 860 nM.

The record behind these values is US8426420B2, “Heterocyclic pyrazole-carboxamidesas P2Y12 antagonists” (Sanofi, priority 2007, dated 2013).
